pIC50: −log10 of the molar value. The source made the active and inactive calls. The rule behind the calls is not given here.
Experiments:
[1] = Intrinsic clearance in mouse hepatocytes at 1 uM measured after 90 mins by LC-MS/MS analysis; format: ADME, cell-based, Hepatocyte; conditions: read-out: CLH
[2] = Drug metabolism in dog liver microsomes; format: ADME, Canis lupus familiaris, Microsome
[3] = Intrinsic clearance in dog hepatocytes at 1 uM measured after 90 mins by LC-MS/MS analysis; format: ADME, cell-based, Canis lupus familiaris, Hepatocyte; conditions: read-out: CLH
[4] = molecular target: Cytochrome P450 3A4 (Homo sapiens, UniProt P08684); test: Inhibition of CYP3A4 in human liver microsomes using midazolam as substrate preincubated for 10 mins followed by NADPH regeneration system addition and measured after 3 mins by LC-MS/MS analysis; format: ADME, Microsome
[5] = Drug metabolism in rat hepatocytes; format: ADME, cell-based, Hepatocyte
[6] = Half life in Sprague-Dawley rat at 30 mg/kg, po administered via gavage by LC-MS/MS analysis; format: ADME, organism-based; conditions: in vivo
[7] = tested on: NIH3T3; test: Antiproliferative activity against mouse NIH/3T3 cells by celltitter-glo assay; format: functional, cell-based
[8] = tested on: CD14-positive cell; test: Immunostimulatory activity in human PBMC derived M-CSF stimulated CD14-positive cells assessed as effect on M2 macrophage polarization at 0.01 to 10 uM supplemented with fresh medium containing compound on day 1, 3 and 5 followed by M-CSF/IL-4/IL-13 stimulation; format: functional, cell-based; conditions: dose 0.01-10 µM, time 5.0 day
[9] = AUC (0 to last) in Sprague-Dawley rat at 30 mg/kg, po administered via gavage by LC-MS/MS analysis; format: ADME, organism-based; conditions: in vivo
[10] = tested on: CD14-positive cell; test: (§1) Immunostimulatory activity in human PBMC derived M-CSF stimulated CD14-positive cells assessed as increase in TNFalpha level at 0.1 to 10 uM supplemented with fresh medium containing compound on day 1, 3 and 5 followed by M-CSF/IL-4/IL-13 stimulation for 2 days with subsequent LPS induction and measured after 16 hrs; format: functional, cell-based; conditions: dose 0.1-10 µM, time 7.0 day
[11] = Volume of distribution at steady state in Beagle dog at 1 mg/kg, iv by LC-MS/MS analysis; format: ADME, organism-based, Canis lupus familiaris; conditions: in vivo, read-out: Vdss
[12] = molecular target: Cytochrome P450 1A2 (Homo sapiens, UniProt P05177); test: Inhibition of CYP1A2 in human liver microsomes using phenacetin as substrate preincubated for 10 mins followed by NADPH regeneration system addition and measured after 10 mins by LC-MS/MS analysis; format: ADME, Microsome
[13] = tested on: 4T1-Luc; test: Antimetastatic activity against mouse 4T1-Luc cells implanted in BALB/c mouse assessed as reduction in metastatic rate in forelimb at 100 mg/kg, po administered daily for 32 days and measured on day 30 to 35 by IVIS fluorescence analysis; format: functional, organism-based; conditions: time 35.0 day
[14] = Lipophilicity, log D of the compound; format: physicochemical; conditions: octanol/water
[15] = Oral bioavailability in CD-1 mouse at 5 mg/kg via gavage by LC-MS/MS analysis; format: ADME, organism-based; conditions: in vivo
[16] = molecular target: Cytochrome P450 2C8 (Homo sapiens, UniProt P10632); test: Inhibition of CYP2C8 in human liver microsomes using amodiaquine as substrate preincubated for 10 mins followed by NADPH regeneration system addition and measured after 10 mins by LC-MS/MS analysis; format: ADME, Microsome
[17] = Half life in Sprague-Dawley rat at 1 mg/kg, iv by LC-MS/MS analysis; format: ADME, organism-based; conditions: in vivo
[18] = Oral bioavailability in CD-1 mouse at 75 mg/kg via gavage by LC-MS/MS analysis; format: ADME, organism-based; conditions: in vivo
[19] = Oral bioavailability in Sprague-Dawley rat at 30 mg/kg administered via gavage by LC-MS/MS analysis; format: ADME, organism-based; conditions: in vivo
[20] = Apparent permeability across apical to basolateral side in dog MDCK-MDR1 cells at 2 uM measured over 150 mins by LC-MS/MS analysis; format: ADME, cell-based, Canis lupus familiaris
[21] = AUC (0 to last) in CD-1 mouse at 75 mg/kg, po via gavage by LC-MS/MS analysis; format: ADME, organism-based; conditions: in vivo
[22] = molecular target: Tyrosine-protein kinase Lck (Homo sapiens) (UniProt P06239); test: Inhibition of LCK (unknown origin) assessed as residual activity at 1 uM relative to control
[23] = Half life in Beagle dog at 1 mg/kg, iv by LC-MS/MS analysis; format: ADME, organism-based, Canis lupus familiaris; conditions: in vivo
[24] = Drug metabolism in monkey liver microsomes; format: ADME, Macaca mulatta, Microsome; conditions: rhesus monkey
[25] = tested on: HUVEC; test: Antiangiogenesis activity in HUVEC assessed as inhibition of vascular structure formation measured after 6 hrs by matrigel based inverted fluorescence microscopy; format: functional, cell-based; conditions: Homo sapiens, dose 0.1-10 µM
[26] = Volume of distribution at steady state in CD-1 mouse at 1 mg/kg, iv by LC-MS/MS analysis; format: ADME, organism-based; conditions: in vivo, read-out: Vdss
[27] = Toxicity in mouse CT26 cell implanted BALB/c mouse assessed as change in body weight at 50 mg/kg, po administered twice daily in presence of antimouse-PD-L1 antibody; format: organism-based; conditions: in vivo
[28] = Cmax in Sprague-Dawley rat at 30 mg/kg, po administered via gavage by LC-MS/MS analysis; format: ADME, organism-based; conditions: in vivo
[29] = Drug metabolism in rat liver microsomes; format: ADME, Microsome
[30] = tested on: CD14-positive cell; test: as §1, with “IL-6” for “TNFalpha”; format: functional, cell-based; conditions: dose 0.1-10 µM, time 7.0 day
[31] = Protein binding in human plasma at 0.2 to 10 uM measured after 4 hrs by equilibrium dialysis based LC-MS/MS analysis; format: ADME, cell-free; conditions: dose 0.2-10 µM, read-out: PPB (converted)
[32] = Protein binding in Beagle dog plasma at 0.2 to 10 uM measured after 4 hrs by equilibrium dialysis based LC-MS/MS analysis; format: ADME, cell-free, Canis lupus familiaris; conditions: dose 0.2-10 µM, read-out: PPB (converted)
[33] = molecular target: Cytochrome P450 2B6 (Homo sapiens, UniProt P20813); test: Inhibition of CYP2B6 in human liver microsomes using bupropion as substrate preincubated for 10 mins followed by NADPH regeneration system addition and measured after 10 mins by LC-MS/MS analysis; format: ADME, Microsome
[34] = Tmax in mouse H22 cell implanted BALB/c mouse at 15 to 50 mg/kg, po administered twice daily for 11 days; format: ADME, organism-based; conditions: in vivo, dose 15-50 mg/kg, time 11 day
[35] = Half life in CD-1 mouse at 5 mg/kg, po via gavage by LC-MS/MS analysis; format: ADME, organism-based; conditions: in vivo
[36] = tested on: Mus musculus; test: In vivo inhibition of TGFbetaR1 in mouse H22 cell implanted BALB/c mouse assessed as reduction in Smad phosphorylation at 15 to 50 mg/kg, po administered twice daily for 11 days measured 1 to 12 hrs post-last dose by immunoblotting analysis; format: functional, organism-based; conditions: dose lower […], dose upper 50.0 mg/kg, time 11.0 day
[37] = Cmax in CD-1 mouse at 5 mg/kg, po via gavage by LC-MS/MS analysis; format: ADME, organism-based; conditions: in vivo
[38] = AUC (0 to last) in Sprague-Dawley rat at 1 mg/kg, iv by LC-MS/MS analysis; format: ADME, organism-based; conditions: in vivo
[39] = tested on: 4T1-Luc; test: Antimetastatic activity against mouse 4T1-Luc cells implanted in BALB/c mouse assessed as reduction in metastatic rate in intestine at 100 mg/kg, po administered daily for 32 days and measured on day 30 to 35 by IVIS fluorescence analysis; format: functional, organism-based; conditions: time 35.0 day
[40] = Protein binding in Sprague-Dawley rat plasma at 0.2 to 10 uM measured after 4 hrs by equilibrium dialysis based LC-MS/MS analysis; format: ADME, cell-free; conditions: dose 0.2-10 µM, read-out: PPB (converted)

Cytochrome P450 2C8, sequence (P10632 whole entry): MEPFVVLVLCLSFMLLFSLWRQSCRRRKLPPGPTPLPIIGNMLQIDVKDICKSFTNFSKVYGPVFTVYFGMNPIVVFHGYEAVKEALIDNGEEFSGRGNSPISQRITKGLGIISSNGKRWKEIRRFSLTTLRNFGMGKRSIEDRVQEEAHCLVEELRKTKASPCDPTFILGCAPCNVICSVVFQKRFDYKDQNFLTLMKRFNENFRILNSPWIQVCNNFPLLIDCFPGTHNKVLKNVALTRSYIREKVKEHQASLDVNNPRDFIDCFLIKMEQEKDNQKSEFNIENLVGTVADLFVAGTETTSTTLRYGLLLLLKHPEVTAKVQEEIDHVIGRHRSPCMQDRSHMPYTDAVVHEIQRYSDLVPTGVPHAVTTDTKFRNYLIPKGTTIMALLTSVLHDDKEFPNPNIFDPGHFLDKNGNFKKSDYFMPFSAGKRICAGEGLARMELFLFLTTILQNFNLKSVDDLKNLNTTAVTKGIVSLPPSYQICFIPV
Cytochrome P450 3A4, sequence (P08684 whole entry): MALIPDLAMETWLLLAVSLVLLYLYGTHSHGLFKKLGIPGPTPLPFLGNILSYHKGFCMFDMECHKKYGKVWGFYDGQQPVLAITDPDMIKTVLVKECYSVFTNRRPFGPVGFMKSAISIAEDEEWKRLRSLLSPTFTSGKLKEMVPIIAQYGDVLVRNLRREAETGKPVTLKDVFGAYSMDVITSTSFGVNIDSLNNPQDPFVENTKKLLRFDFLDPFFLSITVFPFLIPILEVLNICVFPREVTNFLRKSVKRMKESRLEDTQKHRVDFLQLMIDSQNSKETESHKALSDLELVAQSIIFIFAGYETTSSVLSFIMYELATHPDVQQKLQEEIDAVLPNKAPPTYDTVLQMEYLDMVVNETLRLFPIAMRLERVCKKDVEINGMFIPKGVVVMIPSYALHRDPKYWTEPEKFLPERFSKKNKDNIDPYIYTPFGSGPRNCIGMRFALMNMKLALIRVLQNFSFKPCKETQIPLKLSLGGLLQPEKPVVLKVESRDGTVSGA
Cytochrome P450 1A2, sequence (P05177 whole entry): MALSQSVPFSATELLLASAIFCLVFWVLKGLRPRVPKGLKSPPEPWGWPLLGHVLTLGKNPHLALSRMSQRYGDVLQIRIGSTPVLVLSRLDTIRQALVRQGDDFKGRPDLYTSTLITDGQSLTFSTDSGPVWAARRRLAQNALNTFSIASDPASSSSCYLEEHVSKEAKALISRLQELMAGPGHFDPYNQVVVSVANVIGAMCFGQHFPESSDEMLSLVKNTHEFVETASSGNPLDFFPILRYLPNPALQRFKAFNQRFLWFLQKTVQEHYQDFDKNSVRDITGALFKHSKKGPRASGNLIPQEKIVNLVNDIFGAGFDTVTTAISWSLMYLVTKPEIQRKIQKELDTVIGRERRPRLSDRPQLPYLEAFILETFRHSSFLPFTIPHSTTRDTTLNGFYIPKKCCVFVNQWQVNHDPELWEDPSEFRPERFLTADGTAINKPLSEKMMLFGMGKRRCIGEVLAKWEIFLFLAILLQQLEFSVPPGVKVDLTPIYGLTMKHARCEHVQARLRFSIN
Cytochrome P450 2B6, sequence (P20813 whole entry): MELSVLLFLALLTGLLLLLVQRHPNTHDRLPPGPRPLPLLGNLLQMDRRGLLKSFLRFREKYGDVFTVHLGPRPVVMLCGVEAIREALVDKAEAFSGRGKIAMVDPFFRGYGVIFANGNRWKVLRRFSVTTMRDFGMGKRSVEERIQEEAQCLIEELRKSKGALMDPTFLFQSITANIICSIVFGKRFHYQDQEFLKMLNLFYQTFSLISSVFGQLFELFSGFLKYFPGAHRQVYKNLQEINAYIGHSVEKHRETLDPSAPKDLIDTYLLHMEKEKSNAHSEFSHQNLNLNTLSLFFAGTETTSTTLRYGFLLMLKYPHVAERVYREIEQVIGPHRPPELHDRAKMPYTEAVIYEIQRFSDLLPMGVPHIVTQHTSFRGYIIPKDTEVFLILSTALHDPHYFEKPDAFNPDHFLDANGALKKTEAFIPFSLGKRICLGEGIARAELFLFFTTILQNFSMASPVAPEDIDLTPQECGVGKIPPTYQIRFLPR
Tyrosine-protein kinase Lck (Homo sapiens), sequence (P06239 2-509 limits assumed): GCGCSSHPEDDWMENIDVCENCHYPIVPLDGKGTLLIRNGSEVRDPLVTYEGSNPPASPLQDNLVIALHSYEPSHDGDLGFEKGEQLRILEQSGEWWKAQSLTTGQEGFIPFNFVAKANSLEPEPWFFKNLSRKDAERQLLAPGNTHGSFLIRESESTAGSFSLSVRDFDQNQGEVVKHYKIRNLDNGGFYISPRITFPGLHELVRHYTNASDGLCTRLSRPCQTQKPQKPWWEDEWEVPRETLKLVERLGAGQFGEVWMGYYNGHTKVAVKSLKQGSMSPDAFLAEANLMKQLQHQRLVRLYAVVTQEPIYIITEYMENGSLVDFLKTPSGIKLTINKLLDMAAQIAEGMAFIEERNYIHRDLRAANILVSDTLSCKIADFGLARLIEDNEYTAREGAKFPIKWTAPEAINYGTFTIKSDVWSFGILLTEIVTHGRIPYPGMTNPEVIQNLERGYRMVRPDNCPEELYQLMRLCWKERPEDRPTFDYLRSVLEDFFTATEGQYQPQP

With `Cc1cccc(-c2nn3c(c2-c2ccc4ncnn4c2/C=C/C(N)=O)CCC3)n1` the CLint scaled at […], 1 µM [1] was 298 mL/min/kg, the Drug metabolism [2] was “metabolite_detected” and the CLint scaled at […], 1 µM [3] was < 17.1 mL/min/kg. For the same compound, the pIC50 [4] was < 4.00, the Drug metabolism [5] was “metabolite_detected” and the half-life [6] was 2.01 h. The pIC50 [7] was 6.14, the Activity [8] was “inactive” and the AUClast [9] was 9614 nM.hr/ml. For the same compound, the Activity [10] was “Active”, the Vd [11] was 0.961 L/kg and the pIC50 [12] was < 4.00. For the same compound, the Activity [13] was “Active”, the logD [14] was 1.36 and the bioavailability [15] was 8.74%. The pIC50 [16] was < 4.00, the half-life [17] was 0.87 h and the bioavailability [18] was 36.8%. For the same compound, the bioavailability [19] was 29.9%, the Papp A→B at 2.5 h, 2 µM [20] was 0.39 ×10⁻⁶ cm/s and the AUClast [21] was 18137 nM.hr/ml. The Activity [22] was < 50%, the half-life [23] was 3.16 h and the Drug metabolism [24] was “metabolite_detected”. For the same compound, the inhibition [25] was “Dose-dependent-effect”, the Vd [26] was 1.4 L/kg and the Activity [27] was “Non-toxic”. For the same compound, the Cmax [28] was 9553 nM/ml, the Drug metabolism [29] was “metabolite_detected” and the Activity [30] was “Active”. For the same compound, the fraction unbound at 4 h, up to 10 µM [31] was 0.556, the fraction unbound at 4 h, up to 10 µM [32] was 0.476 and the pIC50 [33] was < 4.00. The Tmax [34] was 1 h, the half-life [35] was 0.917 h and the inhibition [36] was “Active; Observed A Significant Decline In Phosphorylated Smad3 Protein At 1 H But Nearly Absent At […] Hrs”. The Cmax [37] was 355 nM/ml, the AUClast [38] was 1332 nM.hr/ml and the Activity [39] was “Active”. For the same compound, the fraction unbound at 4 h, up to 10 µM [40] was 0.376.

Source: ChEMBL document CHEMBL6182942, “Discovery of a Selective, Novel TGF-βR1 Inhibitor GFH018 for the Treatment of Solid Tumors” (J Med Chem, 2025)
